Tests used:
[1] = target: K-Ras^G12C : hSOS1 interaction (Homo sapiens, UniProt Q07889); assay: Biochemical assay 1: K-Ras^G12C interaction assay with hSOS1 (HTRF); assay type: binding; conditions: E-notation values; unit inferred; read-out: Assay 1 (KRAS-SOS interaction) IC50
[2] = target: Epidermal Growth Factor Receptor (EGFR) (Homo sapiens (Human), UniProt P00533); assay: EGFR kinase assay (TR-FRET); assay type: biochemical; conditions: E-notation values; unit inferred; read-out: EGFR-assay IC50
Epidermal Growth Factor Receptor (EGFR), sequence (P00533 25-1210): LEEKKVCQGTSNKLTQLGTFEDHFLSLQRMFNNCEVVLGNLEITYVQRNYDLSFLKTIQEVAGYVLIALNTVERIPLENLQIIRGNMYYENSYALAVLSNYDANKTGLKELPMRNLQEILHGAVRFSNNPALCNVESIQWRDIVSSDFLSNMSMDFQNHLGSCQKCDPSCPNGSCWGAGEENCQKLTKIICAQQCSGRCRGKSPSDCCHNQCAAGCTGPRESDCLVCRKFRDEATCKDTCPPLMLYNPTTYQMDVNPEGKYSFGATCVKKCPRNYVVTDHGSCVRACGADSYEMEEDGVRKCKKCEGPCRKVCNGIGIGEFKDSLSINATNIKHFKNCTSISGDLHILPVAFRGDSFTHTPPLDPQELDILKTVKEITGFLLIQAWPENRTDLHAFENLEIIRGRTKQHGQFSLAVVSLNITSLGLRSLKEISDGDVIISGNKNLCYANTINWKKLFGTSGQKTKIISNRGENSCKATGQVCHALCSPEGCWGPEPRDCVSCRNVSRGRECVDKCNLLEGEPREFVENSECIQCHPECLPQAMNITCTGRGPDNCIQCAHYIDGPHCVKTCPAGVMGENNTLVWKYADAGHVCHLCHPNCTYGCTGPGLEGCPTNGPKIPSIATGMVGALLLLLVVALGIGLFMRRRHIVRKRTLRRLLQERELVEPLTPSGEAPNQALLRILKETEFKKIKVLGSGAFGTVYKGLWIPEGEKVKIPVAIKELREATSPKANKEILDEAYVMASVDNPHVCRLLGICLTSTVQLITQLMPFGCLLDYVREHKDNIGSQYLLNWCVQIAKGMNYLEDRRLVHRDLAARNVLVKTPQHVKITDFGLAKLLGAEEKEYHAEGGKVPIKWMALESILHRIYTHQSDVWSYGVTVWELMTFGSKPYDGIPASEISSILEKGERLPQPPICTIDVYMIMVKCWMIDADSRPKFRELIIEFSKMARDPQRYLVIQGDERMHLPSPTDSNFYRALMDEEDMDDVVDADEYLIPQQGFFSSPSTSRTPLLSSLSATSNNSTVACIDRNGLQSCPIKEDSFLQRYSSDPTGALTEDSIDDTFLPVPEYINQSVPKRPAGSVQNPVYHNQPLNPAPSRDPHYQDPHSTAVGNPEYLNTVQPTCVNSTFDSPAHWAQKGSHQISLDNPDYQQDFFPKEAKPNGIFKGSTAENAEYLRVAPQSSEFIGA
Summary of the method: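 Read-out is the 665/620 nm HTRF ratio, from a Tb-cryptate anti-phosphotyrosine antibody and streptavidin-XL665 bound to phosphorylated biotin-peptide substrate. The enzyme, A431-derived EGFR (~3 U/ml), was given 15 min compound pre-binding at 22° C in Hepes pH 7.0 with Mg2+/Mn2+ before reaction.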

| SMILES | IC50 [1] [nM] | IC50 [2] [nM] |
| --- | --- | --- |
| Cc1nc(NC(C)c2ccc(-c3ccccc3CN(C)C)s2)c2cc(NC(=O)N(C)C)ccc2n1 (stereo not shown) [Example 440, 3-(4-{[1-(5-{2-[(dimethylamino)methyl]phenyl}thiophen-2-yl)ethyl]amino}-2-methylquinazolin-6-yl)-1,1-dimethylurea] | 706 | > 20000 |
| Cc1nc(NC(C)c2ccc(Br)s2)c2cc(N3CCN(Cc4ccccc4)C(=O)C3)ccc2n1 (stereo not shown) [Example 441, 1-benzyl-4-(4-{[1-(5-bromothiophen-2-yl)ethyl]amino}-2-methylquinazolin-6-yl)piperazin-2-one] | 16100 | > 20000 |
| COc1cc2nc(C)nc(NC(C)c3ccc(-c4ccc(C)cc4CN(C)C)s3)c2cc1OC (stereo not shown) [Example 442, N-[1-(5-{2-[(dimethylamino)methyl]-4-methylphenyl}thiophen-2-yl)ethyl]-6,7-dimethoxy-2-methylquinazolin-4-amine] | 45.3 | > 20000 |
| COc1cc2nc(C)nc(NC(C)c3ccc(-c4ccc(C5CC5)cc4CN(C)C)s3)c2cc1OC (stereo not shown) [Example 443, N-[1-(5-{4-cyclopropyl-2-[(dimethylamino)methyl]phenyl}thiophen-2-yl)ethyl]-6,7-dimethoxy-2-methylquinazolin-4-amine] | 112 | > 20000 |
| COc1cc2nc(C)nc(NC(C)c3ccc(-c4ccccc4C(C)(C)N)s3)c2cc1OC (stereo not shown) [Example 455, N-[1-{5-[2-(2-aminopropan-2-yl)phenyl]thiophen-2-yl}ethyl]-6,7-dimethoxy-2-methylquinazolin-4-amine] | 397 | > 20000 |
| COc1cc2nc(C)nc(NC(C)c3ccc(-c4ccccc4CN(C)CC#N)s3)c2cc1OC (stereo not shown) [Example 456, {[2-(5-{1-[(6,7-dimethoxy-2-methylquinazolin-4-yl)amino]ethyl}thiophen-2-yl)benzyl](methyl)amino}acetonitrile] | 162 | > 20000 |
| CNC(=O)Nc1ccc2nc(C)nc(NC(C)c3ccc(-c4ccccc4CN(C)C)s3)c2c1 (stereo not shown) [Example 457, 1-(4-{[1-(5-{2-[(dimethylamino)methyl]phenyl}thiophen-2-yl)ethyl]amino}-2-methylquinazolin-6-yl)-3-methylurea] | 295 | > 20000 |
| Cc1nc(NC(C)c2ccc(-c3ccccc3CN(C)C)s2)c2cc(N3CCN(Cc4ccccc4)C(=O)C3)ccc2n1 (stereo not shown) [Example 458, 1-benzyl-4-(4-{[1-(5-{2-[(dimethylamino)methyl]phenyl}thiophen-2-yl)ethyl]amino}-2-methylquinazolin-6-yl)piperazin-2-one] | 48 | > 20000 |

From patent publication US20240083857A1, “2-Methyl-Quinazolines” (Bayer Pharma Aktiengesellschaft, priority 2017, published 2024)
